US6887997B2, “9H-imidazo[1,2-a]purin-9-one compounds” (Yung Shin Pharmaceutical Ind. Co., Ltd., priority 2001, dated 2005)

melting point: 226 to 228 °C
SMILES: O=c1c2ncn(COCCO)c2nc2[nH]c(-c3ccc(Cl)s3)cn12 [compound 2, 3-(2-Hydroxy-ethoxymethyl)-6-(5-chloro-thiophen-2-yl)-3,5-dihydro-1,3,4,5,7a-pentaaza-s-indacen-8-one]
